# Target: T1, Thermolysin (Bacillus thermoproteolyticus, UniProt P00800)
# T1 sequence (P00800 whole entry): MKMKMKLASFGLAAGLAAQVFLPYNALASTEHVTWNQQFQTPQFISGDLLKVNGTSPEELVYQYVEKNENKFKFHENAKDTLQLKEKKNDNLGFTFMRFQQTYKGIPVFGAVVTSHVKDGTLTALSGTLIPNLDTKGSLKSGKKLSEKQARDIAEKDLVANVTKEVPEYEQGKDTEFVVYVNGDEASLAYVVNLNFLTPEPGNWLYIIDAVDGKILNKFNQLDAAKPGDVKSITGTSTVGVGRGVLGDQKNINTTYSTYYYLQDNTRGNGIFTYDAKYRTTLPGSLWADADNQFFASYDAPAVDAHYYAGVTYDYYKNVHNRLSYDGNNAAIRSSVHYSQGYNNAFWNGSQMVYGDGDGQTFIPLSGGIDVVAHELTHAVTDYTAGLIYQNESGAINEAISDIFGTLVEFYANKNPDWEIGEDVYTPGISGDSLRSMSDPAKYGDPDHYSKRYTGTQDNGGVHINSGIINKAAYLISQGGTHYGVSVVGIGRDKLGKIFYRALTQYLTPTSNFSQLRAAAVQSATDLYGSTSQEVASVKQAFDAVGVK
# Test: Inhibitory constant against thermolysin.
row,Structure (SMILES),Ki [nM]
1,CC(C)C[C@H](NC(=O)[C@H](CC(C)C)NC(=O)CN(C(=O)OCc1ccccc1)P(=O)(O)O)C(=O)O,9.1
2,CC(C)C[C@H](NC(CCCc1ccccc1)C(=O)O)C(=O)N[C@@H](Cc1c[nH]c2ccccc12)C(=O)O (some centres not stated),50
3,O=C(O)CC(=O)N[C@@H](CS)Cc1ccccc1,2300
4,C[C@H](NC(=O)C(CS)Cc1ccccc1)C(=O)NCC(N)=O (some centres not stated),750
5,CC(C)C[C@H](NP(=O)(O)O)C(N)=O,21300
6,CC(C)C[C@H](NP(=O)(O)O[C@@H]1O[C@@H](C)[C@H](O)[C@@H](O)[C@H]1O)C(=O)N[C@@H](Cc1c[nH]c2ccccc12)C(=O)O [PHOSPHORAMIDON],28
7,O=C(O)CNC(=O)C(CS)Cc1ccccc1 (configuration not stated) [THIORPHAN],1800
